Test results reported in US10899639B2, “Composition and method for inhibiting microbial adhesion on surfaces” (SOLENIS TECHNOLOGIES, L.P., priority 2017, dated 2021).

Test system: Biofilms grown on stainless steel 316 coupons
Assay: biofilm reduction on stainless steel 316 coupons from CDC Biofilm reactor, viable cell plating
Type: cell-based
Conditions: two hours at 28° C. with shaking
Description: Biofilms were grown on stainless steel 316 coupons in a CDC Biofilm reactor using […] minimal salts growth media for a period of twenty-four hours. […] A control was done with […] media. After the biofilms were grown, each coupon from the rods in the CDC reactor was unscrewed and dropped into a well of the plate. The plate was then incubated for two hours at 28° C. with shaking. Following the incubation, the coupons were removed from the wells and placed into 5 mL of phosphate-buffered saline (PBS) and sonicated for six minutes. Viable cells released into the fluid were then determined by a plating method. The results are recorded as the percent reduction in cell counts relative to the control.

sodium dodecylbenzene sulfonate [Biosoft D-40]
percent reduction in cell counts relative to the control (LAS 40 ppm actives): 41.83% | percent reduction in cell counts relative to the control (LAS 100 ppm actives): 81.58%
